≈ marks a conversion by molar mass, not a printed value.
System: quinolone-resistant Haemophilus influenzae strains
Experiment: Microdilution MIC determination in HTM for quinolone-resistant Haemophilus influenzae strains
Format: cell-based
Experimental: Inocula were prepared from chocolate agar plates incubated for a full 24 hours by the direct colony suspension method as follows: In a tube of Mueller-Hinton broth (Difco), an organism suspension was made to a density of a 0.5 McFarland standard (1×10^8 CFU/ml). The latter inoculum was diluted in sterile saline such that final organisms suspensions in trays yielded colony counts of 3-8×10^5 CFU/ml. Frozen microdilution trays were obtained from MicroMedia Systems, Inc. (Cleveland, Ohio, USA). Each tray contained all antimicrobials prepared in freshly made HTM. Wells were inoculated with 100 μl suspensions and incubated in ambient air at 35° C. for 20-24 hours. The lowest drug concentration showing no growth was read as the MIC. Standard quality control strains, including H. influenzae ATCC 49766, H. influenzae ATCC 49247, Staphylococcus aureus ATCC 29213 and Escherichia coli ATCC 25922 were included with each run.

[1] = strain 1, GyrA S84→L, ParC S133→A N138→S, GyrB None, ParE None
[2] = strain 2, GyrA S84→F, ParC None, GyrB None, ParE S458→L
[3] = strain 3, GyrA S84→L, ParC S84→I, GyrB None, ParE None
[4] = strain 4, GyrA S84→F D88→N, ParC D83→N, GyrB None, ParE T459→S
[5] = strain 5, GyrA S84→Y, ParC E88→K, GyrB Q468→R, ParE G405→S
[6] = strain 6, GyrA S84→L A117→E, ParC S84→R, GyrB None, ParE D420→N
[7] = strain 7, GyrA S84→L A117→E, ParC S84→R, GyrB None, ParE D420→N
[8] = strain 8, GyrA S84→L A117→E, ParC S84→R, GyrB None, ParE D420→N
[9] = strain 9, GyrA S84→F D88→Y, ParC S84→R N138→S, GyrB None, ParE S458→A S474→N
[10] = strain 1, mutations S133-A N138-S, None, S84-L
[11] = strain 2, mutations NONE, S458-L, S84-F, None
[12] = strain 3, mutations S84-I, None, S84-L
[13] = strain 4, mutations D83-N, S458-S-T459, S84-F D88-N, Q468-R
[14] = strain 5, mutations E88-K, G405-S, S84-Y, None
[15] = strain 6, mutations S84-R, D420-N, S84-L A117-E, None
[16] = strain 7, mutations S84-R, D420-N, S84-L A117-E, None
[17] = strain 8, mutations S84-R, D420-N, S84-L A117-E, None
[18] = strain 9, mutations S84-R N138-S, S458-A S474-N, S84-F D88-Y, None

| Compound | MICs [1] [µg/mL] | MICs [2] [µg/mL] | MICs [3] [µg/mL] | MICs [4] [µg/mL] | MICs [5] [µg/mL] | MICs [6] [µg/mL] | MICs [7] [µg/mL] | MICs [8] [µg/mL] | MICs [9] [µg/mL] | MIC [10] [µg/mL] | MIC [11] [µg/mL] | MIC [12] [µg/mL] | MIC [13] [µg/mL] | MIC [14] [µg/mL] | MIC [15] [µg/mL] | MIC [16] [µg/mL] | MIC [17] [µg/mL] | MIC [18] [µg/mL] | also measured |
| --- | --- | --- | --- | --- | --- | --- | --- | --- | --- | --- | --- | --- | --- | --- | --- | --- | --- | --- | --- |
| O=C(O)c1cn(C2CC2)c2cc(N3CCNCC3)c(F)cc2c1=O [Cip] | 0.5 | 0.25 | 1 | 1 | 1 | 2 | 2 | 2 | 8 |  |  |  |  |  |  |  |  |  |  |
| O=C(O)c1cn(C2CC2)c2cc(N3CCNCC3)c(F)cc2c1=O [Cipro] |  |  |  |  |  |  |  |  |  |  |  |  |  |  |  |  |  |  | MIC (Haemophilus influenzae, strain 1, mutations S133-A N138-S, None, S84-L): 0.5 µg/mL (≈ 1.51 µM); MIC (Haemophilus influenzae, strain 2, mutations NONE, S458-L, S84-F, None): 0.25 µg/mL (≈ 0.754 µM); MIC (Haemophilus influenzae, strain 3, mutations S84-I, None, S84-L): 1 µg/mL (≈ 3.02 µM); MIC (Haemophilus influenzae, strain 4, mutations D83-N, S458-S-T459, S84-F D88-N, Q468-R): 1 µg/mL (≈ 3.02 µM); MIC (Haemophilus influenzae, strain 5, mutations E88-K, G405-S, S84-Y, None): 1 µg/mL (≈ 3.02 µM); MIC (Haemophilus influenzae, strain 6, mutations S84-R, D420-N, S84-L A117-E, None): 2 µg/mL (≈ 6.04 µM); MIC (Haemophilus influenzae, strain 7, mutations S84-R, D420-N, S84-L A117-E, None): 2 µg/mL (≈ 6.04 µM); MIC (Haemophilus influenzae, strain 8, mutations S84-R, D420-N, S84-L A117-E, None): 2 µg/mL (≈ 6.04 µM); MIC (Haemophilus influenzae, strain 9, mutations S84-R N138-S, S458-A S474-N, S84-F D88-Y, None): 8 µg/mL (≈ 24.1 µM) |
| CO/N=C1\CN(c2nc3c(cc2F)c(=O)c(C(=O)O)cn3C2CC2)CC1CN (stereo not drawn) [Gemi] |  |  |  |  |  |  |  |  |  | 0.03 (≈ 0.077 µM) | 0.125 (≈ 0.321 µM) | 0.125 (≈ 0.321 µM) | 0.25 (≈ 0.642 µM) | 0.25 (≈ 0.642 µM) | 0.5 (≈ 1.28 µM) | 0.5 (≈ 1.28 µM) | 0.5 (≈ 1.28 µM) | 1 (≈ 2.57 µM) |  |
| Cc1c(F)c(N2CCNC(C)C2)cc2c1c(=O)c(C(=O)O)cn2C1CC1 (stereo not drawn) [Gre] | 0.25 | 0.5 | 0.5 | 2 | 1 | 1 | 1 | 1 | 4 |  |  |  |  |  |  |  |  |  |  |
| Cc1c(F)c(N2CCNC(C)C2)cc2c1c(=O)c(C(=O)O)cn2C1CC1 (stereo not drawn) [Grepa] |  |  |  |  |  |  |  |  |  | 0.25 (≈ 0.696 µM) | 0.5 (≈ 1.39 µM) | 0.5 (≈ 1.39 µM) | 2 (≈ 5.56 µM) | 1 (≈ 2.78 µM) | 1 (≈ 2.78 µM) | 1 (≈ 2.78 µM) | 1 (≈ 2.78 µM) | 4 (≈ 11.1 µM) |  |
| C[C@H]1COc2c(N3CCN(C)CC3)c(F)cc3c(=O)c(C(=O)O)cn1c23 [Lev] | 0.5 | 0.25 | 1 | 0.5 | 1 | 2 | 2 | 2 | 4 |  |  |  |  |  |  |  |  |  |  |

Reference: US20040044006A1, “Methods of use of quinolone compounds against pneumococcal and haemophilus bacteria” (priority 1999, published 2004)
